Measurements as given in a melting point compilation (Tetko et al.; mined from patent text by program, amines drawn as free bases though some values may be those of a salt).
Starred links: 1 amine or outer side, 2 acyl side, 3 side chain; linkers in the order of their positions; H or OH if unused. Non-standard residues stand in square brackets, D forms with d. Residues, ends and D or L forms follow the SMILES beside them. *: point of attachment. γGlu = O=C(O)[CH](CCC(=O)[*:2])N[*:1]; Lauroyl = CCCCCCCCCCCC(=O)*; Boc = CC(C)(C)OC(=O)*

melting point [°C]	SMILES
157 to 160	O=c1ccn(C2CC(O)C(COC3(c4ccccc4)c4ccccc4Oc4ccccc43)O2)c(=O)[nH]1 (configuration not stated)
120 to 122	CCOC=Nc1c2oc3ccccc3c2nn1C
114	CCCc1nnc2n1-c1ccccc1CS2
145 to 147	Fc1cccc(-c2ccc3nnn(Cc4ccc5ncccc5c4)c3n2)c1
115 to 117	Cc1cc(-c2c[nH]c(C)n2)ccn1
170 to 172	OCCc1ccc(Nc2ncc3c(n2)-c2ccccc2C(c2ccc(F)c(F)c2)C3)cc1 (configuration not stated)
115 to 120	CC(C)(C)OC(=O)NCC(=O)NCC(=O)NCC(=O)O (Boc-Gly-Gly-Gly-OH)
174 to 175	CCCCOc1nccc2c1C(c1ccccc1C(F)(F)F)C(C(=O)OCC)=C(C)N2 (configuration not stated)
154 to 155	Cc1ncc(C(O)=S)cc1OC(C)C
137 to 142	CC(C)(C)Nc1c[nH]c2ccccc12
114 to 116	OC(CN1CCC(C(O)c2ccccc2)CC1)c1ccc(F)cc1 (configuration not stated)
191 to 192	Cc1ccc(C[C@H]2NC(=O)CN(Cc3ccccc3)C2=O)cc1C
211 to 212	CC(=O)n1c(=O)n(-c2ccc3c(c2)OCO3)c2ncccc21
142 to 145	Cc1cc(C(=O)Nc2ccccc2O)cc(C)c1O
45 to 48	CC(=O)c1cc(OCC2CO2)ccc1OCc1ccccc1 (configuration not stated)
151 to 152	CCCn1c(=O)nc(Sc2ccc(Cl)cc2)sc1=S
206 to 208	COc1ccc([N+](=O)[O-])c(Nc2ccc3[nH]ncc3c2)n1
167 to 169	CCCCC1OC(=O)c2cc(NC(C)=O)c([N+](=O)[O-])cc21 (configuration not stated)
100 to 102	CCCC(CC)c1nc(C)nc2c1c(C)c(C)n2-c1c(C)cc(C)cc1C (configuration not stated)

melting point [°C]	SMILES
122 to 124	O=S(=O)(Nc1cc(F)c(Cl)cc1I)c1ccccc1
102 to 103	N#Cc1ccc(N)cc1N
74 to 76	CCOC(=O)CCCCC(=O)c1c(C)n(C(=O)OC)c(=O)n1C(=O)OC
180 to 186	CCCCCCCCCCCC(=O)NC(C)C(=O)NC(CCC(=O)NC(CCCCN)C(=O)O)C(=O)O (configuration not stated) (Lauroyl-Ala-[γGlu]-Lys-OH; configuration not given here)
160 to 161	COc1cccc(C(=O)NCC(=O)N2c3ccccc3N(Cc3ccccc3)C(=O)[C@H]3CCC[C@H]32)c1 (relative stereo)
138 to 141	COC(=O)c1cc(-n2c(=O)c3c(n(C)c2=O)CCC3)c(F)cc1Cl
149	Cc1csc2c1c(C(=O)c1ccc(Cl)cc1)cn2C(C)C(=O)O (configuration not stated)
224 to 226	Nc1nc(=O)n(CC2CC2)cc1F
211 to 213	COc1cccc(CNC(=O)c2nc3c(cc(C)n3S(C)(=O)=O)c(=O)[nH]2)c1
180 to 182	Nc1nccc(Oc2ccc3c(c2)CCCN3)n1
118 to 120	CCOC(=O)c1c2ccc(Cl)cc2c(-c2ccccc2)n1CC(=O)N(CC)CC
174 to 178	CN1C(=O)CN(c2cccc(C#N)c2)NC1=O
106 to 109	CCCCCCCCC(=O)NCC(=O)O
288 to 290	COc1ccc(-c2c3c(cc4ccc(OC)c(OC)c24)C(=O)NC3=O)cc1
168 to 171	N[C@@H](CSc1ccccc1[N+](=O)[O-])C(=O)O
166	COc1cc2[nH]c(N(C)Cc3cccc(N4CCCC4=O)c3)nc(=O)c2c(OC)c1OC
179	Cc1nc(-c2ccccc2)sc1C(=O)NCc1ccc(OC(C)(C)C(=O)O)cc1
89 to 91	CCc1c(OC)nc(OC)nc1C(=O)c1cc(C)cc(C=O)c1
140 to 142	CO/C=C(/C(=O)OC)c1ccccc1Oc1nc(Cl)nnc1Cl

melting point [°C]	SMILES
150 to 153	COc1ccc(Cn2c(=O)cc(C)c3cnc(N4CCC[C@H]4CO)nc32)cc1Cl
200 to 202	CCOC(=O)c1c(-c2cc(C)c(O)c(C)c2)c(C)n2c1-c1cc(OC)c(OC)cc1C(C)(C)C2
237 to 239	COc1cc(Cl)ccc1C(=O)Nc1ccc(C(=O)N2Cc3ccccc3Cc3ccccc32)cc1
115 to 117	CCc1cc(Br)cc2nc(C(=O)OC)c(C(=O)OC)c(O)c12
116 to 117	O=C(N[C@H](Cc1ccccc1)C(=O)O)OCc1ccc(COc2ccccc2)cc1
68	CN(CCNC(=O)NCCCOc1cccc(CN2CCCCC2)c1)CCN(Cc1ccc(F)cc1)c1ccccn1
192 to 193	COC(=O)c1cc(=O)c2cc(OC)cc([N+](=O)[O-])c2o1
135 to 138	CCCCOCCOc1ccc(-c2ccc(N3CCCCCC3)c(C=CC(=O)O)c2)cc1
224 to 227	O=S(Cc1cccc(O)c1)c1nc2cnccc2[nH]1 (configuration not stated)
112 to 113	COC(=O)CCc1oc(-n2ccnc2S(C)(=O)=O)nc1-c1ccc(Cl)cc1
194 to 196	Cc1cc(-c2cccc(Cl)c2)nn2c(C)nnc12
147 to 149	CCCc1nc2c(N)nc3ccc(C)cc3c2s1
98 to 99	CSc1nc(C)ccc1NC(=O)CCCCCBr
164 to 167	c1ccc(-c2cnc3ncnn3c2)cc1
136 to 138	O=C(NCCc1ccc(I)cc1)C(F)(F)F
192 to 193	Cc1ccc2c(c1)C=C(C(=O)O)C(C(F)(F)F)O2 (configuration not stated)
89 to 90	CC(C)CNCc1cccc(OCCCNc2nc(N)nn2C)c1
118 to 119	O=[N+]([O-])C=Cc1ccc(OCc2ccccc2)c(OCc2ccccc2)c1
147 to 148	COC(=O)C=Cc1nn(-c2ccccc2)c2c1CCC2

Further lines, the compound ahead of its results:

SMILES	melting point [°C]
CCN(CC)C(=O)c1ccc(C(=O)N2CCN(c3ncccc3NC(C)C)CC2)cc1	78 to 80
CCCCCCCCCCCCCCCCCC(=O)ON1C(C)(C)CC(OC(=O)c2ccccc2)CC1(C)C	85 to 89
[N-]=[N+]=C1C(=O)CC(c2ccccc2)CC1=O (configuration not stated)	122 to 124
O=C1COc2cccc3nc4c(c(c23)N1)CCCC4	201 to 202
CC1=C(C)N(C(=O)Oc2ccccc2)C(c2ccc(C)cc2)C=C1 (configuration not stated)	106
COc1ccc(S(=O)(=O)c2c(C(C)C)cn3cccc(C)c23)cc1	103
O=C(O)CCc1cccc2ccccc12	151 to 153
O=C(CC1CCC1)N[C@H]1CC[C@H](CCN2CCC(c3cccc4c3CCO4)CC2)CC1	196
CCc1nc([C@@H]2C[C@H]2c2nc3ccccc3n2C)cc(-n2nc(C)nc2C)n1 (relative stereo)	158 to 160
Cc1oncc1C(=O)N1CCSCC1	64.5 to 65
Cc1cn2cccc(OCc3c(Cl)ccc(S(=O)(=O)N4CCC[C@H]4C(=O)O)c3Cl)c2n1	135
Cc1ccc(N(c2ccc(-c3ccccc3)cc2)c2ccc(C)c(C)c2)cc1	128 to 130
Cc1cccc(N2CCN(Cc3c[nH]c4ncccc34)CC2)c1	156 to 158
CCCC(=O)c1cnc2c(OCCO)cccc2c1Nc1ccccc1C	125 to 127
C1=C2c3ccccc3C3CC2(CN1Cc1ccccc1)c1ccccc13 (configuration not stated)	135 to 145
CCN(CC)CCn1nc2c3c(c(N)ccc31)Oc1ccccc1-2	78 to 80
CCC12CCC3C4CCC(=O)C=C4CCC3C1CCC2=O (configuration not stated)	156 to 158
CSc1c(N)nc(NCCCOC(C)C)nc1Cl	245
Cc1cccc2c1nc(-c1cccnc1)n2Cc1c(F)cccc1F	186 to 188
CN1C(=O)C(c2ccc(OC(F)F)cc2)(c2ccc(F)c(CF)c2)N=C1N (configuration not stated)	70 to 73
COc1cc(C(C)=O)ccc1OCCCN1CCC(=C(c2ccc(Cl)cc2)c2ccc(Cl)cc2)CC1	143 to 144
CCc1[nH]n(C2CCCC2)c2nc(-c3ccc4nccn4c3)nc(=O)c1-2	> 300
CCOc1nnc(COc2ccc(Oc3cccc(Cl)n3)cc2)s1	92 to 94

SMILES	melting point [°C]
O=C(C=Cc1ccc(O)cc1)C=Cc1ccc(O)cc1	236
CCN(CC)C(=O)n1cnc(Sc2c(C)cccc2C)n1	111 to 112
CCOC(=O)C1=C(C)NC(N)=C(C(=O)OCC)C1c1ccccc1OC (configuration not stated)	170
CC(C)C[C@H](NC(=O)OCc1ccccc1)C(=O)NCCCNC(=O)[C@H](CC(C)C)NC(=O)OCc1ccccc1	177 to 178
COC(=O)c1sccc1N=NN(C)C	74 to 76
c1cc2ncn(CCCCc3nnnn3C3CCCCC3)c2cn1	133 to 135
Oc1ccc(Oc2ncc(C(F)(F)F)cc2Cl)cc1	70 to 72
CCOC(=O)c1cccc2c1c1c(C)ccc(C)c1n2S(=O)(=O)c1ccc(C)cc1	149
Cc1nc(C(=O)c2[nH]c3ccc(Cl)cc3c2CC(=O)O)c[nH]1	237 to 238
Cc1cc(C(C)(C)C)c(O)c([N+](=O)[O-])c1[N+](=O)[O-]	104 to 105
COc1ccc2cc(-n3cnnc3)cc(C)c2n1	157 to 159
CCOc1ccc(-c2nc(-c3cccc(C(O)CO)n3)cs2)cc1OCC (configuration not stated)	112
NCC(=O)c1cccc2c(S(=O)(=O)n3c(CCC(=O)O)cc4cc(Cl)ccc43)cccc12	130 to 135
CS(=O)(=O)OCc1cc(-c2ccc3c(c2)CCO3)nn(CC=Cc2ccc(Cl)cc2)c1=O	135 to 140
COc1cc2c(cc1OC)C(c1ccccc1OC)=NN=C(C)C2	119 to 121
CCOC(=O)c1nc(-c2cccc(Cl)c2)c(-c2ccc(=O)n(C(C)C)n2)s1	134 to 136
Clc1cccc(Cl)c1C1=NC2(CO1)COC(c1ccccc1)OC2 (configuration not stated)	158 to 160
COc1cc(OC)cc(C(=O)P2(=O)Oc3ccccc3-c3ccccc32)c1 (configuration not stated)	140 to 142
CCCc1cc(=O)oc2c(C=O)c(O)c3c(c12)OC(C)(C)C=C3	116 to 117
COc1ccc(C=CC(=O)NCCc2ccc(-c3ccccc3)c(S(N)(=O)=O)c2)c(OC)c1	85
O=S(=O)(Cl)c1ccc(Cl)c(CBr)c1Cl	90 to 92
O=C(O)CCCCC=Cc1cc(-c2ccccc2)c2ccccc2n1	152 to 154
